Results as given in EP4591861A1 (IBIOME Biotechnology Co., Ltd., priority 2022, dated 2024).

Key:
[1] = system: AAD-induced depression model; experiment: Forced swimming test in AAD-induced depression model; type: in vivo, mice; settings: for immobility time: forced swimming, AAD mice, 2 hours after administration
Procedure: The forced swimming test apparatus is a transparent 20×30cm round barrel filled with pure water, with a diameter of 20cm and a water depth of 15cm. The pure water temperature is 23-25°C. A camera is installed in front of the apparatus and is flush with the water surface. After the mouse is placed in the water, a video of its activities in the water is collected for 6 minutes. The last 4 min of the video were analyzed to determine the immobility time of the mouse. Immobility behavior is defined as the behavior of the mouse floating, not struggling, or relying only on occasional swinging to maintain floating. The longer the immobility time, the more severe the depression.
(§1) 11, 12, and 13. […] At the same time, it still has a significant antidepressant effect at concentrations of 0.3 mg/kg, 1 mg/kg, and 10 mg/kg.

[2] = system: AAD-induced depression model; experiment: Sucrose preference test in AAD-induced depression model; type: in vivo; settings: AAD mice; 0.1 mg/kg intravenous; versus AAD mice + normal saline group (P<0.01)
Procedure: as §1

human BBOX1 = target: T1, human BBOX1 (Homo sapiens, UniProt O75936); settings: binding to the active site of human BBOX1; background statement; cited from earlier work
T1 sequence (O75936 1-387): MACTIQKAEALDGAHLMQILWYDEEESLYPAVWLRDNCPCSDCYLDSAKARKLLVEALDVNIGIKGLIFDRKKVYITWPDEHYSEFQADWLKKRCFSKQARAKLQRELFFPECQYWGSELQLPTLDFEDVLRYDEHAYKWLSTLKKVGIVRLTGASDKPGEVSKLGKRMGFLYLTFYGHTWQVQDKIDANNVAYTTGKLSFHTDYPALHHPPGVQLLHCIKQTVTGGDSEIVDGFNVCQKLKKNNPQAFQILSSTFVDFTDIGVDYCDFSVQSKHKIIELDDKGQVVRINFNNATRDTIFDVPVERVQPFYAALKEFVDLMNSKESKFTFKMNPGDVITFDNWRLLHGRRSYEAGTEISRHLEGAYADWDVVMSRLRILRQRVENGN

[3] = system: CRS-induced depression model; experiment: Sucrose preference test in CRS-induced depression model; settings: CRS mice; 0.1 mg/kg intravenous; versus CRS + normal saline group (P<0.01)
Excerpt: After adapting to the environment, from day 0, the CRS mouse group was subjected to chronic, unpredictable mild stimulation for 21 days to simulate the chronic low-intensity stress received by humans in daily life. Every day, one stimulus was selected from the day and night to treat the mice, and the order was random and continuous without repetition, so that the mice could not predict the appearance of the stimulus (Table 1).
Two hours after administration, the mice were subjected to forced swimming and tail suspension tests, and the immobility time of the mice in each group in the forced swimming and tail suspension tests was compared.
The sucrose preference test is used to evaluate the sucrose water preference of mice, which can reflect the degree of anhedonia of mice. In the entire animal experiment, a total of two sucrose preference tests were conducted. Before modeling, the sucrose preference coefficient of all mice was measured by the sucrose preference tests to ensure that the mice in the experiment were in the same state. After the test, the sucrose preference tests were formally carried out, including the adaptation training part and the test part. […] After the adaptation, fasting and water deprivation for 24 hours, and then the sucrose preference coefficient was measured. […]

[4] = system: Cort-induced depression model; experiment: Sucrose preference test in Cort-induced depression model; settings: Cort mice; 0.1 mg/kg intravenous; versus Cort mice + normal saline group (P<0.01)
Procedure: The sucrose preference test is used to evaluate the sucrose water preference of mice, which can reflect the degree of anhedonia of mice. In the entire animal experiment, a total of two sucrose preference tests were conducted. Before modeling, the sucrose preference coefficient of all mice was measured by the sucrose preference tests to ensure that the mice in the experiment were in the same state. After the test, the sucrose preference tests were formally carried out, including the adaptation training part and the test part. In the training, two bottles of 1% (w/v) sucrose solution were placed in each cage of mice in the first 24 hours, and one of the bottles was replaced with pure water in the next 24 hours. After the adaptation, fasting and water deprivation for 24 hours, and then the sucrose preference coefficient was measured. In the test, mice can only choose two bottles weighed in advance, one bottle is 1% (w/v) sucrose solution, and the other bottle is pure water. After fasting for 24 hours, take away the two bottles and weigh them, and record the total liquid consumption, sucrose water consumption and pure water consumption of the mice. The calculation method of sucrose preference coefficient is: sucrose preference coefficient (%) = sucrose water consumption/ (sucrose water consumption + pure water consumption) × 100%. […]

[5] = system: AAD-induced depression model; experiment: Tail suspension test in AAD-induced depression model; type: in vivo; settings: AAD mice, 2 hours after administration
Procedure: The tail suspension test uses tape to suspend mice by their tails in a position where they cannot escape or grab onto nearby surfaces. A camera is mounted in front of the mice to record the activity of the mice for 6 minutes while they are suspended. The last 4 min of the video is then analyzed to determine the time the mice spend immobile. This test is based on the idea that animals that are subjected to short-term, unavoidable stress will develop an immobile posture, and the more severe the depressive phenotype, the less time they will spend trying to escape.
as §1

[6] = 0.1 mg/kg intravenous, versus AAD mice + normal saline group

Row | Structure (SMILES) | duration of the antidepressant effect after a single administration ([1]; mouse, in vivo, iv, 0.1 mg/kg) [h] | sucrose preference [2] | dissociation constant (human BBOX1) | sucrose preference [3] | sucrose preference [4] | immobility time [1, 6] | immobility time ([1]; 3 mg/kg intravenous) | immobility time [5, 6] | immobility time ([5]; 3 mg/kg intravenous)
1 | CC(CCC(=O)[O-])[N+](C)(C)C (stereo not shown) [4-TMAP, 4-(trimethylammonio) pentanoate] | 24 to 36 | significantly higher | low | significantly higher | significantly higher |  |  |  | 
2 | O=c1ccc2ccc(OCCCCN3CCN(c4cccc5sccc45)CC3)cc2[nH]1 [Brexpiprazole] |  | cannot change the depressive-like behavior |  |  |  | cannot change the depressive-like behavior | significantly reducing | cannot change the depressive-like behavior | significantly reducing
